Patent publication US10206937B2, “Boronic acid derivatives and therapeutic uses thereof” (Qpex Biopharma, Inc., priority 2014, dated 2019)

Key:
NDM-1 [1] = target: T1, NDM-1 (Klebsiella pneumoniae, UniProt C7C422); assay: biochemical
VIM-1 = target: T2, VIM-1 (Pseudomonas aeruginosa, UniProt A0A0F7KYQ8); assay: biochemical; settings: cleavage of nitrocefin (200 uM) by VIM-1 supernatant
T2 construct: made in house; host or cells: ECM6711 strain carrying pUCP24-VIM-1 plasmid; culture supernatant used unpurified

NDM-1 [2] = target: T1, NDM-1; assay: Inhibition of purified class B carbapenemase NDM-1 (Ki, imipenem substrate); assay type: biochemical; settings: NDM-1, substrate imipenem; read-out: Ki NDM-1, Imipenem
[3] = target: purified class A, C and D enzymes (Enterobacter cloacae, UniProt P05364); assay type: biochemical; settings: purified P99/AmpC of ECL; nitrocefin reporter substrate
[4] = target: purified class A, C and D enzymes (Escherichia coli, UniProt Q9L5C7); assay type: biochemical; settings: purified CTX-M-14; nitrocefin reporter substrate
[5] = target: T3, purified class A, C and D enzymes (UniProt Q6XEC0); assay type: biochemical; settings: read-out: Ki (OXA-48, NCF); purified OXA-48; nitrocefin reporter substrate
T3 construct: rows headed: Ki (OXA-48, NCF); other: purified OXA-48; nitrocefin reporter substrate

[6] = target: T4, purified class A, C and D enzymes (UniProt Q9F663); assay type: biochemical; settings: read-out: Ki (KPC-2, NCF); purified KPC-2; nitrocefin reporter substrate
T4 construct: rows headed: Ki (KPC-2, NCF); other: purified KPC-2; nitrocefin reporter substrate

[7] = target: T5, purified class A, C and D enzymes (UniProt P0AD64, L31Q/G234S/E235K, species not given); assay type: biochemical; settings: read-out: Ki (SHV-12, NCF); purified SHV-12; nitrocefin reporter substrate
T5 construct: Ki (SHV-12, NCF); other: purified SHV-12; nitrocefin reporter substrate
T5 sequence (P0AD64 1-286 L31Q/G234S/E235K): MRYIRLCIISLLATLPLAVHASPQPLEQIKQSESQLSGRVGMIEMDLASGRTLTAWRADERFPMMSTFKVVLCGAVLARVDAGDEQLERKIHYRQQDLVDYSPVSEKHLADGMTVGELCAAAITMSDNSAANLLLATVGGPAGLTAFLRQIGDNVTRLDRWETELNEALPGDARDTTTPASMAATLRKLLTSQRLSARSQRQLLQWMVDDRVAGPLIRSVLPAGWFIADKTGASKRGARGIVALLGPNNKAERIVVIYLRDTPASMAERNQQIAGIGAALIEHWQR

[8] = cleavage of imipenem (100 uM) by NDM-1, read-out: Ki, Imipenem

purified class A, C and D enzymes (Escherichia coli, UniProt Q9L5C7), sequence (Q9L5C7 entry or part of it): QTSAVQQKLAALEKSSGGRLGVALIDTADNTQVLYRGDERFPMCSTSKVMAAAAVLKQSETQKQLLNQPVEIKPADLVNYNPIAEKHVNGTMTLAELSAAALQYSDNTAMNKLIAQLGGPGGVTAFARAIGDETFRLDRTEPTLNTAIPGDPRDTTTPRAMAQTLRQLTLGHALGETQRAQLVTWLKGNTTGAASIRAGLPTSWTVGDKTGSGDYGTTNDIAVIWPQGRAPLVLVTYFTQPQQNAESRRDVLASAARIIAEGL
purified class A, C and D enzymes (Enterobacter cloacae, UniProt P05364), sequence (P05364 21-381): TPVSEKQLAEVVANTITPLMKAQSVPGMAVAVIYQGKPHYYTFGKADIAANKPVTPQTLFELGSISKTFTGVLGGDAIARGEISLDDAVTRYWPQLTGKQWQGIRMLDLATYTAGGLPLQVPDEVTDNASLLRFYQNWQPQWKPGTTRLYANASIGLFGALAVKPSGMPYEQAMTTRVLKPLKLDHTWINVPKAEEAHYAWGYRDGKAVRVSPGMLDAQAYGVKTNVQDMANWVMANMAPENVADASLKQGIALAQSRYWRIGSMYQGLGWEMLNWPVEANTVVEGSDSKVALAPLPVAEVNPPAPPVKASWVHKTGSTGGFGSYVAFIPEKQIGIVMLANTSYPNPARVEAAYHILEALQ
T1 sequence (C7C422 29-270, looked up, species assumed): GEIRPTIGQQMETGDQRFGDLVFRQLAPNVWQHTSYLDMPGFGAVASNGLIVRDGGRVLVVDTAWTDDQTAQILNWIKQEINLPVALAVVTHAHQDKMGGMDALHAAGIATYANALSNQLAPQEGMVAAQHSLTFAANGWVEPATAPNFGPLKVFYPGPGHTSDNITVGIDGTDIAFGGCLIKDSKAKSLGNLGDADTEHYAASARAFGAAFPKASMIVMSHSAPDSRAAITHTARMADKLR

| SMILES | Ki (NDM-1 [1]; [8]) [nM] | IC50 (VIM-1) [nM] | Ki (NDM-1 [2]) [nM] | Ki (P99/AmpC of ECL, NCF) [3] | Ki (CTX-M-14, NCF) [4] | Ki [5] [nM] | Ki [6] [nM] | Ki [7] [nM] | Ki (NDM-1 [1]; cleavage of biapenem (100 uM) by NDM-1, read-out: Ki, Biapenem) [nM] | Ki (NDM-1 [1]; cleavage of meropenem (100 uM) by NDM-1, read-out: Ki, Meropenem) [nM] |
| --- | --- | --- | --- | --- | --- | --- | --- | --- | --- | --- |
| CSCCOc1ccc2c(c1C(=O)O)OB(O)[C@@H](Sc1nncs1)C2 [Compound 95, (3R)-2-hydroxy-7-(2-methylsulfanylethoxy)-3-(1,3,4-thiadiazol-2-ylsulfanyl)-3,4-dihydro-1,2-benzoxaborinine-8-carboxylic acid] | 10 to 100 | < 1000 | 10 to 100 | Y (0.1 μM to 1 μM) | X (Less than 0.1 μM) | < 100 | 100 to 1000 | – | – | – |
| O=C(O)c1c(OCc2nncs2)ccc2c1OB(O)[C@@H](Sc1nncs1)C2 [Compound 93] | > 100 | < 1000 | > 100 | Y (0.1 μM to 1 μM) | X (Less than 0.1 μM) | < 100 | 100 to 1000 | – | – | – |
| COc1ccc2c(c1C(=O)O)OB(O)[C@@H](SC1CN(S(N)(=O)=O)C1)C2 [Compound 76, (3R)-2-hydroxy-7-methoxy-3-(1-sulfamoylazetidin-3-yl)sulfanyl-3,4-dihydro-1,2-benzoxaborinine-8-carboxylic acid] | > 100 | ≥ 1000 | > 100 | Y (0.1 μM to 1 μM) | X (Less than 0.1 μM) | < 100 | 100 to 1000 | – | – | – |
| O=C(O)c1cccc2c1OB(O)[C@@H](Sc1c[nH]nn1)C2 [Compound 12, (R)-3-(1H-1,2,3-triazol-4-ylthio)-2-hydroxy-3,4-dihydro-2H-benzo[e][1,2]oxaborinine-8-carboxylic acid] | 10 to 100 | < 1000 | 10 to 100 | – | – | – | 100 to 1000 | – | – | – |
| O=C(O)c1c(OCC2CC2)ccc2c1OB(O)[C@@H](Sc1nncs1)C2 [Compound 92, (3R)-7-(cyclopropylmethoxy)-2-hydroxy-3-(1,3,4-thiadiazol-2-ylsulfanyl)-3,4-dihydro-1,2-benzoxaborinine-8-carboxylic acid] | 10 to 100 | < 1000 | 10 to 100 | Y (0.1 μM to 1 μM) | X (Less than 0.1 μM) | < 100 | 100 to 1000 | – | – | – |
| O=C(O)c1c(OC(F)F)ccc2c1OB(O)[C@@H](Sc1nncs1)C2 [Compound 94, (3R)-7-(difluoromethoxy)-2-hydroxy-3-(1,3,4-thiadiazol-2-ylsulfanyl)-3,4-dihydro-1,2-benzoxaborinine-8-carboxylic acid] | > 100 | < 1000 | > 100 | Z (Greater than 1 μM) | X (Less than 0.1 μM) | < 100 | 100 to 1000 | – | – | – |
| CO[C@H]1Cc2ccc(F)c(C(=O)O)c2OB1O [Compound 19, (R)-7-fluoro-2-hydroxy-3-methoxy-3,4-dihydro-2H-benzo[e][1,2]oxaborinine-8-carboxylic acid] | < 10 | < 1000 | – | – | – | < 100 | < 100 | < 100 | – | – |
| CO[C@H]1Cc2cccc(C(=O)O)c2OB1O [Compound 17, (R)-2-hydroxy-3-methoxy-3,4-dihydro-2H-benzo[e][1,2]oxaborinine-8-carboxylic acid] | 10 to 100 | < 1000 | 10 to 100 | – | – | < 100 | < 100 | < 100 | 10 to 100 | 10 to 100 |
| COc1ccc2c(c1C(=O)O)OB(O)[C@@H](Sc1nnc(NC(=N)N)s1)C2 [Compound 106, (3R)-3-[(5-guanidino-1,3,4-thiadiazol-2-yl)sulfanyl]-2-hydroxy-7-methoxy-3,4-dihydro-1,2-benzoxaborinine-8-carboxylic acid] | > 100 | < 1000 | > 100 | X (Less than 0.1 μM) | X (Less than 0.1 μM) | < 100 | 100 to 1000 | – | – | – |
| CS(=O)(=O)Nc1ccc2c(c1C(=O)O)OB(O)[C@@H](Sc1nnc(N)s1)C2 [Compound 120, (3R)-3-[(5-amino-1,3,4-thiadiazol-2-yl)sulfanyl]-2-hydroxy-7-(methanesulfonamido)-3,4-dihydro-1,2-benzoxaborinine-8-carboxylic acid] | < 10 | < 1000 | < 10 | X (Less than 0.1 μM) | X (Less than 0.1 μM) | < 100 | 100 to 1000 | – | – | – |
| CC(=N)S[C@H]1Cc2cccc(C(=O)O)c2OB1O [Compound 10, (R)-2-hydroxy-3-(1-iminoethylthio)-3,4-dihydro-2H-benzo[e][1,2]oxaborinine-8-carboxylic acid] | 10 to 100 | ≥ 1000 | 10 to 100 | – | – | – | 100 to 1000 | – | – | – |
| O=C(O)c1cccc2c1OB(O)[C@@H](Sc1ccccc1)C2 [Compound 6, (R)-2-hydroxy-3-(phenylthio)-3,4-dihydro-2H-benzo[e][1,2]oxaborinine-8-carboxylic acid] | < 10 | < 1000 | < 10 | – | – | – | – | – | – | – |
| Nn1cnnc1S[C@H]1Cc2ccc(F)c(C(=O)O)c2OB1O [Compound 20, (R)-3-(4-amino-4H-1,2,4-triazol-3-ylthio)-7-fluoro-2-hydroxy-3,4-dihydro-2H-benzo[e][1,2]oxaborinine-8-carboxylic acid] | < 10 | ≥ 1000 | < 10 | – | – | 100 to 1000 | 100 to 1000 | < 100 | – | – |
| O=C(O)c1cccc2c1OB(O)[C@@H](OCc1ccccc1)C2 [Compound 13, (R)-3-(benzyloxy)-2-hydroxy-3,4-dihydro-2H-benzo[e][1,2]oxaborinine-8-carboxylic acid] | 10 to 100 | < 1000 | 10 to 100 | – | – | – | – | – | – | – |
| Cn1nnnc1S[C@H]1Cc2cccc(C(=O)O)c2OB1O [Compound 5, (R)-2-hydroxy-3-(1-methyl-1H-tetrazol-5-ylthio)-3,4-dihydro-2H-benzo[e][1,2]oxaborinine-8-carboxylic acid] | 10 to 100 | ≥ 1000 | 10 to 100 | – | – | – | – | – | – | – |
| CSc1ccc2c(c1C(=O)O)OB(O)[C@@H](Sc1nncn1N)C2 [Compound 25, (R)-3-(4-amino-4H-1,2,4-triazol-3-ylthio)-2-hydroxy-7-(methylthio)-3,4-dihydro-2H-benzo[e][1,2]oxaborinine-8-carboxylic acid] | < 10 | < 1000 | < 10 | – | – | < 100 | 100 to 1000 | < 100 | – | – |
| O=C(O)c1cccc2c1OB(O)[C@@H](Sc1cccnc1)C2 [Compound 8, (R)-2-hydroxy-3-(pyridin-3-ylthio)-3,4-dihydro-2H-benzo[e][1,2]oxaborinine-8-carboxylic acid] | > 100 | < 1000 | > 100 | – | – | – | – | – | – | – |
| Cn1cnnc1S[C@H]1Cc2ccc(F)c(C(=O)O)c2OB1O [Compound 24, (R)-7-fluoro-2-hydroxy-3-(4-methyl-4H-1,2,4-triazol-3-ylthio)-3,4-dihydro-2H-benzo[e][1,2]oxaborinine-8-carboxylic acid] | 10 to 100 | ≥ 1000 | 10 to 100 | – | – | < 100 | 100 to 1000 | < 100 | – | – |
